Reference: US20250144067A1, “PERSONALIZED STARVATION THERAPY FOR CANCER” (Faeth Therapeutics, Inc., priority 2021, published 2025)
Where a name gives a salt, the structure may show the parent alone.

These molecules were tested on NCI-H292 lung cancer cells (assay: FDA drug screening, complete media vs cholesterol-free media with simvastatin (TABLE 2)). Details: not given.
Type: cell-based, human

In order of rising “Cholesterol-free media + simvastatin (0.04 μM)” value:
1. CN1[C@@H]2CC[C@H]1C[C@@H](OC(=O)C(CO)c1ccccc1)C2 (stereo partly shown) [Atropine (sulfate monohydrate)]  0.6465
2. CN1[C@@H]2CC[C@H]1C[C@@H](OC(=O)C(CO)c1ccccc1)C2 (stereo partly shown) [Atropine]  1.317

With `CN1[C@@H]2CC[C@H]1C[C@@H](OC(=O)C(CO)c1ccccc1)C2` (stereo partly shown) [Atropine (sulfate monohydrate)] the “Complete Media” value was 0.6938.

In order of rising Difference:
1. CN1[C@@H]2CC[C@H]1C[C@@H](OC(=O)C(CO)c1ccccc1)C2 (stereo partly shown) [Atropine]  −0.28
2. CN1[C@@H]2CC[C@H]1C[C@@H](OC(=O)C(CO)c1ccccc1)C2 (stereo partly shown) [Atropine (sulfate monohydrate)]  0.05

Same assay, conditions: NCI-H292 cells, FDA drug library screen, cholesterol-free media with simvastatin 0.04 μM

In order of rising “Cholesterol-free media + simvastatin (0.04 μM)” value:
1. CC(C)c1c(C(=O)Nc2ccccc2)c(-c2ccccc2)c(-c2ccc(F)cc2)n1CC[C@@H](O)C[C@@H](O)CC(=O)O [Atorvastatin (hemicalcium salt)]  0.4555
2. CN1CCN(c2cc3c(nn2)Oc2ccccc2N3C)CC1.Cl.Cl.O [Azaphen (dihydrochloride monohydrate)]  1.02
3. COc1ccc(C(=O)CC(=O)c2ccc(C(C)(C)C)cc2)cc1 [Avobenzone]  1.07
4. NC(=O)[C@@H]1CC[C@@H]2CN1C(=O)N2OS(=O)(=O)O [Avibactam (sodium hydrate)]  1.124
5. O=C(Nc1nc(-c2cc(Cl)cs2)c(N2CCN(C3CCCCC3)CC2)s1)c1cnc(N2CCC(C(=O)O)CC2)c(Cl)c1 [Avatrombopag (hydrochloride)]  1.18
6. O=C1C(O)=C([C@H]2CC[C@H](c3ccc(Cl)cc3)CC2)C(=O)c2ccccc21 [Atovaquone]  1.327

Same assay, conditions: NCI-H292 cells, FDA drug library screen, complete media

In order of falling “Complete Media” value:
1. O=C1C(O)=C([C@H]2CC[C@H](c3ccc(Cl)cc3)CC2)C(=O)c2ccccc21 [Atovaquone]  1.493
2. O=C(Nc1nc(-c2cc(Cl)cs2)c(N2CCN(C3CCCCC3)CC2)s1)c1cnc(N2CCC(C(=O)O)CC2)c(Cl)c1 [Avatrombopag (hydrochloride)]  1.082
3. NC(=O)[C@@H]1CC[C@@H]2CN1C(=O)N2OS(=O)(=O)O [Avibactam (sodium hydrate)]  1.029
4. COc1ccc(C(=O)CC(=O)c2ccc(C(C)(C)C)cc2)cc1 [Avobenzone]  0.9672
5. CN1CCN(c2cc3c(nn2)Oc2ccccc2N3C)CC1.Cl.Cl.O [Azaphen (dihydrochloride monohydrate)]  0.9251
6. CC(C)c1c(C(=O)Nc2ccccc2)c(-c2ccccc2)c(-c2ccc(F)cc2)n1CC[C@@H](O)C[C@@H](O)CC(=O)O [Atorvastatin (hemicalcium salt)]  0.7295

Same assay, conditions: NCI-H292 cells, cholesterol-free media with simvastatin 0.04 μM; FDA drug library screen (TABLE 2)

In order of falling “Cholesterol-free media + simvastatin (0.04 μM)” value:
1. O=C(CCCN1CCN(c2ccccn2)CC1)c1ccc(F)cc1 [Azaperone]  1.007
2. C=C[C@@H]1C[C@]1(NC(=O)[C@@H]1C[C@@H](Oc2ncc(OC)c3ccc(Cl)cc23)CN1C(=O)[C@@H](NC(=O)OC(C)(C)C)C(C)(C)C)C(=O)NS(=O)(=O)C1CC1 [Asunaprevir]  1.005
3. CC(=O)OC[C@H]1O[C@@H]([S-])[C@H](OC(C)=O)[C@@H](OC(C)=O)[C@@H]1OC(C)=O.CCP(CC)CC.[Au+] [Auranofin]  0.01251

Same assay, conditions: NCI-H292 cells, complete media; FDA drug library screen (TABLE 2)

In order of rising “Complete Media” value:
1. CC(=O)OC[C@H]1O[C@@H]([S-])[C@H](OC(C)=O)[C@@H](OC(C)=O)[C@@H]1OC(C)=O.CCP(CC)CC.[Au+] [Auranofin]  0.0008313
2. C=C[C@@H]1C[C@]1(NC(=O)[C@@H]1C[C@@H](Oc2ncc(OC)c3ccc(Cl)cc23)CN1C(=O)[C@@H](NC(=O)OC(C)(C)C)C(C)(C)C)C(=O)NS(=O)(=O)C1CC1 [Asunaprevir]  0.9979
3. O=C(CCCN1CCN(c2ccccn2)CC1)c1ccc(F)cc1 [Azaperone]  0.9983

Same assay, conditions: complete media minus cholesterol-free media + simvastatin (0.04 μM); >0 enhanced anti-cancer activity, about 0 neutral, <0 antagonist

In order of falling Difference:
1. C=C[C@@H]1C[C@]1(NC(=O)[C@@H]1C[C@@H](Oc2ncc(OC)c3ccc(Cl)cc23)CN1C(=O)[C@@H](NC(=O)OC(C)(C)C)C(C)(C)C)C(=O)NS(=O)(=O)C1CC1 [Asunaprevir]  −0.01
2. O=C(CCCN1CCN(c2ccccn2)CC1)c1ccc(F)cc1 [Azaperone]  −0.01

Same assay, conditions: complete media minus cholesterol-free media + simvastatin (0.04 μM); […]

`CC(=O)OC[C@H]1O[C@@H]([S-])[C@H](OC(C)=O)[C@@H](OC(C)=O)[C@@H]1OC(C)=O.CCP(CC)CC.[Au+]` [Auranofin] was tested, and the Difference was −0.01.

Same assay, conditions: complete media minus cholesterol-free media + simvastatin; >0 enhanced anti-cancer activity, about 0 neutral, <0 antagonist

In order of falling Difference:
1. CC(C)c1c(C(=O)Nc2ccccc2)c(-c2ccccc2)c(-c2ccc(F)cc2)n1CC[C@@H](O)C[C@@H](O)CC(=O)O [Atorvastatin (hemicalcium salt)]  0.27
2. O=C1C(O)=C([C@H]2CC[C@H](c3ccc(Cl)cc3)CC2)C(=O)c2ccccc21 [Atovaquone]  0.17

Same assay, conditions: complete media vs cholesterol-free media + simvastatin (0.04 μM); >0 enhanced anti-cancer activity, about 0 neutral, <0 antagonist

In order of falling Difference:
1. NC(=O)[C@@H]1CC[C@@H]2CN1C(=O)N2OS(=O)(=O)O [Avibactam (sodium hydrate)]  −0.09
2. O=C(Nc1nc(-c2cc(Cl)cs2)c(N2CCN(C3CCCCC3)CC2)s1)c1cnc(N2CCC(C(=O)O)CC2)c(Cl)c1 [Avatrombopag (hydrochloride)]  −0.10
3. COc1ccc(C(=O)CC(=O)c2ccc(C(C)(C)C)cc2)cc1 [Avobenzone]  −0.10

Same assay, conditions: complete media vs cholesterol-free media + simvastatin (0.04 μM); […]

In the case of `CN1CCN(c2cc3c(nn2)Oc2ccccc2N3C)CC1.Cl.Cl.O` [Azaphen (dihydrochloride monohydrate)], the Difference is reported as −0.09.

Each molecule was assayed on NCI-H292 lung cancer cells (assay: FDA drug screening, complete media vs cholesterol-free media without statin (TABLE 1)). Details: not given.
Type: cell-based, human

In order of rising Complete:
1. CN1[C@@H]2CC[C@H]1C[C@@H](OC(=O)C(CO)c1ccccc1)C2 (stereo partly shown) [Atropine]  0.8977
2. CN1[C@@H]2CC[C@H]1C[C@@H](OC(=O)C(CO)c1ccccc1)C2 (stereo partly shown) [Atropine (sulfate monohydrate)]  1.139

In order of rising Difference:
1. CN1[C@@H]2CC[C@H]1C[C@@H](OC(=O)C(CO)c1ccccc1)C2 (stereo partly shown) [Atropine]  −0.42
2. CN1[C@@H]2CC[C@H]1C[C@@H](OC(=O)C(CO)c1ccccc1)C2 (stereo partly shown) [Atropine (sulfate monohydrate)]  0.08

Work on `CN1[C@@H]2CC[C@H]1C[C@@H](OC(=O)C(CO)c1ccccc1)C2` (stereo partly shown) [Atropine] yielded a Cholesterol-free of 1.317.

Same assay, conditions: Complete minus Cholesterol-free; >0 enhanced anti-cancer activity, about 0 neutral, <0 antagonist

In order of rising Difference:
1. CC(C)c1c(C(=O)Nc2ccccc2)c(-c2ccccc2)c(-c2ccc(F)cc2)n1CC[C@@H](O)C[C@@H](O)CC(=O)O [Atorvastatin (hemicalcium salt)]  −0.21
2. O=C(CCCN1CCN(c2ccccn2)CC1)c1ccc(F)cc1 [Azaperone]  −0.01

Same assay, conditions: Complete minus Cholesterol-free; […]

For `CC(=O)OC[C@H]1O[C@@H]([S-])[C@H](OC(C)=O)[C@@H](OC(C)=O)[C@@H]1OC(C)=O.CCP(CC)CC.[Au+]` [Auranofin], the Difference was 0.01.

Same assay, conditions: Complete minus Cholesterol-free; greater than 0 enhanced anti-cancer activity, about 0 neutral, below 0 antagonist

In order of rising Difference:
1. O=C(Nc1nc(-c2cc(Cl)cs2)c(N2CCN(C3CCCCC3)CC2)s1)c1cnc(N2CCC(C(=O)O)CC2)c(Cl)c1 [Avatrombopag (hydrochloride)]  −0.15
2. C=C[C@@H]1C[C@]1(NC(=O)[C@@H]1C[C@@H](Oc2ncc(OC)c3ccc(Cl)cc23)CN1C(=O)[C@@H](NC(=O)OC(C)(C)C)C(C)(C)C)C(=O)NS(=O)(=O)C1CC1 [Asunaprevir]  −0.09

Same assay, conditions: Complete minus Cholesterol-free; greater than 0 enhanced anti-cancer activity, about 0 neutral, below 0 antagonists

`COc1ccc(C(=O)CC(=O)c2ccc(C(C)(C)C)cc2)cc1` [Avobenzone] was tested, and the Difference was −0.48.

Same assay, conditions: NCI-H292 cells in cholesterol-free media without statin

`COc1ccc(C(=O)CC(=O)c2ccc(C(C)(C)C)cc2)cc1` [Avobenzone] was tested, and the Cholesterol-free was 1.457.

Same assay, conditions: NCI-H292 cells in complete media

`COc1ccc(C(=O)CC(=O)c2ccc(C(C)(C)C)cc2)cc1` [Avobenzone] was tested, and the Complete was 0.9767.

Same assay, conditions: NCI-H292 cells, FDA drug library screen, cholesterol-free media without statin

In order of rising Cholesterol-free:
1. O=C(Nc1nc(-c2cc(Cl)cs2)c(N2CCN(C3CCCCC3)CC2)s1)c1cnc(N2CCC(C(=O)O)CC2)c(Cl)c1 [Avatrombopag (hydrochloride)]  0.9128
2. C=C[C@@H]1C[C@]1(NC(=O)[C@@H]1C[C@@H](Oc2ncc(OC)c3ccc(Cl)cc23)CN1C(=O)[C@@H](NC(=O)OC(C)(C)C)C(C)(C)C)C(=O)NS(=O)(=O)C1CC1 [Asunaprevir]  1.081

Same assay, conditions: NCI-H292 cells, FDA drug library screen, complete media

In order of falling Complete:
1. C=C[C@@H]1C[C@]1(NC(=O)[C@@H]1C[C@@H](Oc2ncc(OC)c3ccc(Cl)cc23)CN1C(=O)[C@@H](NC(=O)OC(C)(C)C)C(C)(C)C)C(=O)NS(=O)(=O)C1CC1 [Asunaprevir]  0.9902
2. O=C(Nc1nc(-c2cc(Cl)cs2)c(N2CCN(C3CCCCC3)CC2)s1)c1cnc(N2CCC(C(=O)O)CC2)c(Cl)c1 [Avatrombopag (hydrochloride)]  0.7673

Same assay, conditions: NCI-H292 cells, cholesterol-free media without statin

In order of rising Cholesterol-free:
1. CC(C)c1c(C(=O)Nc2ccccc2)c(-c2ccccc2)c(-c2ccc(F)cc2)n1CC[C@@H](O)C[C@@H](O)CC(=O)O [Atorvastatin (hemicalcium salt)]  0.7947
2. CN1CCN(c2cc3c(nn2)Oc2ccccc2N3C)CC1.Cl.Cl.O [Azaphen (dihydrochloride monohydrate)]  1.204

Same assay, conditions: NCI-H292 cells, cholesterol-free media without statin, FDA drug library screen

In order of falling Cholesterol-free:
1. O=C1C(O)=C([C@H]2CC[C@H](c3ccc(Cl)cc3)CC2)C(=O)c2ccccc21 [Atovaquone]  0.9543
2. O=C(CCCN1CCN(c2ccccn2)CC1)c1ccc(F)cc1 [Azaperone]  0.9307
3. NC(=O)[C@@H]1CC[C@@H]2CN1C(=O)N2OS(=O)(=O)O [Avibactam (sodium hydrate)]  0.6447
4. CC(=O)OC[C@H]1O[C@@H]([S-])[C@H](OC(C)=O)[C@@H](OC(C)=O)[C@@H]1OC(C)=O.CCP(CC)CC.[Au+] [Auranofin]  −0.008527

Same assay, conditions: NCI-H292 cells, complete media

In order of falling Complete:
1. CN1CCN(c2cc3c(nn2)Oc2ccccc2N3C)CC1.Cl.Cl.O [Azaphen (dihydrochloride monohydrate)]  0.7783
2. CC(C)c1c(C(=O)Nc2ccccc2)c(-c2ccccc2)c(-c2ccc(F)cc2)n1CC[C@@H](O)C[C@@H](O)CC(=O)O [Atorvastatin (hemicalcium salt)]  0.5817

Same assay, conditions: NCI-H292 cells, complete media, FDA drug library screen

In order of rising Complete:
1. CC(=O)OC[C@H]1O[C@@H]([S-])[C@H](OC(C)=O)[C@@H](OC(C)=O)[C@@H]1OC(C)=O.CCP(CC)CC.[Au+] [Auranofin]  0.0049
2. NC(=O)[C@@H]1CC[C@@H]2CN1C(=O)N2OS(=O)(=O)O [Avibactam (sodium hydrate)]  0.883
3. O=C(CCCN1CCN(c2ccccn2)CC1)c1ccc(F)cc1 [Azaperone]  0.9163
4. O=C1C(O)=C([C@H]2CC[C@H](c3ccc(Cl)cc3)CC2)C(=O)c2ccccc21 [Atovaquone]  1.102

Same assay, conditions: complete vs cholesterol-free media; >0 enhanced anti-cancer activity, about 0 neutral, <0 antagonist

In order of rising Difference:
1. O=C1C(O)=C([C@H]2CC[C@H](c3ccc(Cl)cc3)CC2)C(=O)c2ccccc21 [Atovaquone]  0.15
2. NC(=O)[C@@H]1CC[C@@H]2CN1C(=O)N2OS(=O)(=O)O [Avibactam (sodium hydrate)]  0.24

Same assay, conditions: complete vs cholesterol-free media; […]

`CN1CCN(c2cc3c(nn2)Oc2ccccc2N3C)CC1.Cl.Cl.O` [Azaphen (dihydrochloride monohydrate)] showed a Difference of −0.43.
